One may read the IC50 as the concentration needed to halve the response being measured. As usually defined, the inhibition is the share of the control response that was lost under treatment. Higher therefore signals a response far below the control.

Experimental findings from ChEMBL document CHEMBL4145493, “Tetrahydroacridine derivatives with dichloronicotinic acid moiety as attractive, multipotent agents for Alzheimer's disease treatment” (Eur J Med Chem, 2018) are described below.

For one series, the target named is Cholinesterase (Equus caballus, UniProt P81908). As to the kind of experiment: Inhibition of equine serum BuChE using acetylthiocholine iodide as substrate after 8 mins by Ellman's method.
The next series deals with Acetylcholinesterase (Electrophorus electricus, UniProt O42275). As to the kind of experiment: Inhibition of electric eel AChE using acetylthiocholine iodide as substrate after 10 mins by Ellman's method. For orientation: Ellman's reagent forms a yellow product with free thiols.
A further series has as its system A549. As to the kind of experiment: Cytotoxicity against human A549 cells assessed as cell viability after 48 hrs by MTT assay. The class given is cell-based. Conditions: A549, 48 h. A general note: Formazan colour is commonly taken as a measure of viable cells.
A short description of series [1]: Cytotoxicity against human A549 cells assessed as cell viability at 0.9 uM after 48 hrs by MTT assay relative to control. The class given is cell-based. Conditions: read-out: Activity.
In series [2] the target is Amyloid-beta precursor protein (Homo sapiens) (UniProt P05067). As to the kind of experiment: Inhibition of self-induced amyloid beta (1 to 42) (unknown origin) aggregation at 5 uM measured after 24 hrs by ThT fluorescence assay relative to control.
In another series the test system is AChE (electric eel). As to the kind of experiment: Selectivity index, ratio of IC50 for human A549 cells to IC50 for electric eel AChE. The format is toxicity. The conditions noted are these: read-out: Ratio IC50.
Series [3] deals with Amyloid-beta precursor protein (Homo sapiens) (UniProt P05067). As to the kind of experiment: Inhibition of self-induced amyloid beta (1 to 42) (unknown origin) aggregation at 10 uM measured after 24 hrs by ThT fluorescence assay relative to control.
The nature of series [4]: Cytotoxicity against human A549 cells assessed as cell viability at 2.3 uM after 48 hrs by MTT assay relative to control. The class given is cell-based. The conditions noted are these: read-out: Activity.
In series [5] the target is Amyloid-beta precursor protein (Homo sapiens) (UniProt P05067). Put plainly: Inhibition of self-induced amyloid beta (1 to 42) (unknown origin) aggregation at 25 uM measured after 24 hrs by ThT fluorescence assay relative to control.
The subject of the next series is BuChE (equine serum). Put plainly: Selectivity index, ratio of IC50 for human A549 cells to IC50 for equine serum BuChE. The class given is toxicity. The conditions noted are these: read-out: Ratio IC50.
In a further series the target is T1, Hyaluronidase (Bos taurus, UniProt Q8SQG8+Q5E985).
T1 sequence (Q8SQG8 whole entry): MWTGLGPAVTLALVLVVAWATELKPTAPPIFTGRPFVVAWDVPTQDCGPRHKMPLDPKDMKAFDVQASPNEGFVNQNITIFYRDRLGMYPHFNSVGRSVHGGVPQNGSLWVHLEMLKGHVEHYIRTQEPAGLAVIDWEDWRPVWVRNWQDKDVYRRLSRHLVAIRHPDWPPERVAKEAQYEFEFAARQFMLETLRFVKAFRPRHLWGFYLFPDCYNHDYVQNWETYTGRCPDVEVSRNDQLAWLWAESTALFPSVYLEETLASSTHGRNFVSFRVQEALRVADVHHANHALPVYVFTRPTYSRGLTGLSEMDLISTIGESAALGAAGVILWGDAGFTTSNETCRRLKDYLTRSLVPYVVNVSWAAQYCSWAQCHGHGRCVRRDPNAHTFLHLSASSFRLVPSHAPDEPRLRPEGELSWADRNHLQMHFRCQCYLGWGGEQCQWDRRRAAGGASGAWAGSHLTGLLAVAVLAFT
T1 sequence (Q5E985 whole entry): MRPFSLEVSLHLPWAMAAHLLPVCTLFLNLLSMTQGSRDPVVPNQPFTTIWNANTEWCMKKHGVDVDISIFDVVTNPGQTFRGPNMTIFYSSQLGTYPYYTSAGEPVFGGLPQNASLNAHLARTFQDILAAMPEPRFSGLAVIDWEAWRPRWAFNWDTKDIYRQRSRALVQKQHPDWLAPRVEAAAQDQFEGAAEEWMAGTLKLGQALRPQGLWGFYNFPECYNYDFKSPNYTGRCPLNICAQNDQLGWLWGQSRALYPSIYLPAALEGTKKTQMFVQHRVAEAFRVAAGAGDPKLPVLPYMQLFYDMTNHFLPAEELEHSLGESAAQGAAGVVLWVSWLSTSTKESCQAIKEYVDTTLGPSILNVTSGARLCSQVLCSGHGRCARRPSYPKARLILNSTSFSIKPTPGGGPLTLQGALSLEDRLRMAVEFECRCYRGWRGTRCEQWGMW
As to the kind of experiment: Inhibition of bovine testes hyaluronidase using hyaluronic acid as substrate preincubated for 10 mins in dark followed by incubation with substrate for 45 mins and subsequent addition of serum albumin measured after 10 mins by turbidimetric method. The format is protein assay.

Series [6] deals with Amyloid-beta precursor protein (Homo sapiens) (UniProt P05067). Put plainly: Inhibition of self-induced amyloid beta (1 to 42) (unknown origin) aggregation at 50 uM measured after 24 hrs by ThT fluorescence assay relative to control.

Amyloid-beta precursor protein (Homo sapiens), sequence (P05067 whole entry): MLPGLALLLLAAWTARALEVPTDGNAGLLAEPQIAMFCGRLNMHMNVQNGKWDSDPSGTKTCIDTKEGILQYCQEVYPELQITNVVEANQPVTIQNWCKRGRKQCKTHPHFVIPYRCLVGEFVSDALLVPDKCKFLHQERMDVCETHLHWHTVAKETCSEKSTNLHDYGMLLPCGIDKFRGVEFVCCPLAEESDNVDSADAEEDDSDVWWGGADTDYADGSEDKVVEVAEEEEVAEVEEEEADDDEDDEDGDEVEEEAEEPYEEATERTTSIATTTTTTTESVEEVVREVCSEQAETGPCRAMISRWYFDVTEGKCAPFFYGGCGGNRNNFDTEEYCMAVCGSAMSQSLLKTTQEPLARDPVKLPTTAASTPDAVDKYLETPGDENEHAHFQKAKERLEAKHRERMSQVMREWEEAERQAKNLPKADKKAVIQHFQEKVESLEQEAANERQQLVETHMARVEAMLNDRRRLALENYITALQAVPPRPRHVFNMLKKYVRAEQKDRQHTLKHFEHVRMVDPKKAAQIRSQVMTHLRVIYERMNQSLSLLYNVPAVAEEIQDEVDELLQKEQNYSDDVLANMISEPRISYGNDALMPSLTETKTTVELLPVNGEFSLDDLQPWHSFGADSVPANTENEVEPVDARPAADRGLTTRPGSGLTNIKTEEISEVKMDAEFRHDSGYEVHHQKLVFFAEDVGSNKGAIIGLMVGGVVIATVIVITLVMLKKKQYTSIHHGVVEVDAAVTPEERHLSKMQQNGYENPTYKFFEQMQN
Cholinesterase, sequence (P81908 whole entry): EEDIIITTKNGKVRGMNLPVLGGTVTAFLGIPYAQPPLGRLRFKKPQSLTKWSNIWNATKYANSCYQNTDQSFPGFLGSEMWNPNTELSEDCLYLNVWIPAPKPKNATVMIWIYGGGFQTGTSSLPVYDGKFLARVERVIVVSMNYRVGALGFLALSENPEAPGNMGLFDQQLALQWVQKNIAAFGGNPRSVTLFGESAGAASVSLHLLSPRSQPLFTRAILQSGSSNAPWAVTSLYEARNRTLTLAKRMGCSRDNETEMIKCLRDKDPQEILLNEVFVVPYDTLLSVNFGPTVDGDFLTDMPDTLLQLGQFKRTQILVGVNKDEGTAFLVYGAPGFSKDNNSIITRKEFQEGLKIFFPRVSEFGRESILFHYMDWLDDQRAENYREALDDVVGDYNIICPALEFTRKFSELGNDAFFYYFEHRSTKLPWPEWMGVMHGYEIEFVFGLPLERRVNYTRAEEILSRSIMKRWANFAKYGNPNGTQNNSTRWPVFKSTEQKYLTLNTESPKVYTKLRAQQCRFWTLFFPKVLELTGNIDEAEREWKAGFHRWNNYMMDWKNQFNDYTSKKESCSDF
Acetylcholinesterase, sequence (O42275 whole entry): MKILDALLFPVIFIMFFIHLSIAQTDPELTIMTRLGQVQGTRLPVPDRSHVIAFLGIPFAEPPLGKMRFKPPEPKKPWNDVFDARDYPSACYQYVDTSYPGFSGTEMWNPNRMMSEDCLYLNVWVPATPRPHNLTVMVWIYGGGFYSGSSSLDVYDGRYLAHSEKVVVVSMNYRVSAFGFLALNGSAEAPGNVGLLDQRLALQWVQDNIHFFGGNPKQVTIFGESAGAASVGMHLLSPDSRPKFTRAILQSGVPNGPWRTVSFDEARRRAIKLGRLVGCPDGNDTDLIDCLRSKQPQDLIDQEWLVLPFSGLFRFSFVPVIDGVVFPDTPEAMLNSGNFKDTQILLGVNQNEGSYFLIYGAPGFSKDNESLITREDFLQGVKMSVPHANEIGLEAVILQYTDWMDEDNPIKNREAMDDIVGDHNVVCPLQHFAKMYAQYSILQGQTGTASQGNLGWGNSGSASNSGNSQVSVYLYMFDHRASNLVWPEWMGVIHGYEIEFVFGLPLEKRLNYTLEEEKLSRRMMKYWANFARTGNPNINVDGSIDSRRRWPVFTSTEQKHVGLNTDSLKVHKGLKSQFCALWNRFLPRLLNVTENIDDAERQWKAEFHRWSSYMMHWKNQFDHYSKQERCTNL

In the case of `O=C(NCCCCCNc1c2c(nc3ccccc13)CCCC2)c1cnc(Cl)c(Cl)c1`, the IC50 was 13.5 nM against Cholinesterase and 2.9 nM against Acetylcholinesterase.

Turning to `O=C(NCCCCCCCCNc1c2c(nc3ccccc13)CCCC2)c1cnc(Cl)c(Cl)c1`, the IC50 against Cholinesterase is 10.7 nM; at Acetylcholinesterase it was 10.3 nM.

In the case of `O=C(NCCCCNc1c2c(nc3ccccc13)CCCC2)c1cnc(Cl)c(Cl)c1`, the IC50 turned out to be 41.4 nM against Cholinesterase and 1.65 nM against Acetylcholinesterase.

With `O=C(NCCCCCCCCCNc1c2c(nc3ccccc13)CCCC2)c1cnc(Cl)c(Cl)c1`, the IC50 at Cholinesterase worked out at 3.33 nM; against Acetylcholinesterase, 3.12 nM.

Consider `O=C(NCCNc1c2c(nc3ccccc13)CCCC2)c1cnc(Cl)c(Cl)c1`, for which the IC50 on Cholinesterase came out at 726 nM; on Acetylcholinesterase, 16.7 nM.

For the compound `O=C(NCCCCCCCNc1c2c(nc3ccccc13)CCCC2)c1cnc(Cl)c(Cl)c1`, the IC50 on Cholinesterase was found to be 11.4 nM; against Acetylcholinesterase, 12.3 nM.

With `O=C(NCCCCCCNc1c2c(nc3ccccc13)CCCC2)c1cnc(Cl)c(Cl)c1`, the IC50 was 12.9 nM on Cholinesterase and 4.2 nM at Acetylcholinesterase.

In the case of `Cl.O=C(NCCCNc1c2c(nc3ccccc13)CCCC2)c1cnc(Cl)c(Cl)c1`, the IC50 against Cholinesterase was determined as 160 nM; with A549, 2000 nM; at Acetylcholinesterase, 1.02 nM; at Hyaluronidase, 465750 nM. In addition, the viability at 48 h, 0.9 µM in [1] worked out at 82.3%. Also, the inhibition turned out to be 19.4% in series [2], 26.6% in series [3], 31.1% in series [5] and 46.6% in [6]. Moreover, the selectivity ratio in the series with AChE (electric eel) worked out at 1960; with BuChE (equine serum), 13. Also, the viability at 48 h, 2.3 µM in series [4] was found to be 46%.
